Consider 5 compounds from ChEMBL document CHEMBL4152339, “Design and synthesis of novel 1H-tetrazol-5-amine based potent antimicrobial agents: DNA topoisomerase IV and gyrase affinity evaluation supported by molecular docking studies” (Eur J Med Chem, 2018).

Structures are written as SMILES. In brackets after ≈: the same amount, converted by molar mass.

Series [1] has as its system Micrococcus luteus. The series is described as follows: Antibacterial activity against Micrococcus luteus ATCC 10240 after 18 hrs by CLSI disc diffusion method. Format: functional. Conditions: ATCC 10240, 18 h. On the technique in general: In agar diffusion tests the substance spreads into inoculated agar from a disc or well.
A short description of series [2]: Selectivity index, ratio of IC50 for human HaCaT cells to MIC for Bordetella bronchiseptica ATCC 4617. Conditions: read-out: Selectivity Index. The class given is toxicity.
Series [3] concerns Pseudomonas aeruginosa. The experiment in a line: Antibacterial activity against Pseudomonas aeruginosa ATCC 27853 after 18 hrs by CLSI disc diffusion method. Particulars: ATCC 27853, 18 h. Format: functional.
Another series has as its system Escherichia coli. The series is described as follows: Antibacterial activity against Escherichia coli ATCC 10538 after 18 hrs by CLSI disc diffusion method. The class given is functional. Conditions: ATCC 10538, 18 h.
Series [4] deals with Staphylococcus aureus. The series is described as follows: Antibacterial activity against Staphylococcus aureus NCTC 4163 after 18 hrs by CLSI disc diffusion method. The class given is functional. Conditions: NCTC 4163, 18 h.
The subject of a further series is A549. The series is described as follows: Cytotoxicity activity against human A549 cells assessed as reduction in cell viability after 72 hrs by MTT assay. Format: cell-based. Particulars: A549, 72 h. On the technique in general: Tetrazolium assays rely on reduction of a dye to a coloured formazan, in cell work by metabolically active cells.
In series [5] the test system is Bordetella bronchiseptica. The series is described as follows: Antibacterial activity against Bordetella bronchiseptica ATCC 4617 after 18 hrs by CLSI disc diffusion method. The class given is functional. Conditions: ATCC 4617, 18 h.
The subject of a further series is Proteus vulgaris. The series is described as follows: Antibacterial activity against Proteus vulgaris NCTC 4635 after 18 hrs by CLSI disc diffusion method. Particulars: NCTC 4635, 18 h. Format: functional.
Series [6] deals with Micrococcus luteus. The series is described as follows: Antibacterial activity against Micrococcus luteus ATCC 9341 after 18 hrs by CLSI disc diffusion method. Format: functional. Particulars: ATCC 9341, 18 h.
Series [7] in a line: Selectivity index, ratio of IC50 for human HaCaT cells to MIC for Proteus vulgaris NCTC 4635. The class given is toxicity. Particulars: read-out: Selectivity Index.
The subject of series [8] is Staphylococcus epidermidis. The experiment in a line: Antibacterial activity against Staphylococcus epidermidis ATCC 35984 after 18 hrs by CLSI […] method. Particulars: ATCC 35984, 18 h. Format: functional.
Series [9] deals with Staphylococcus epidermidis. The series is described as follows: Antibacterial activity against Staphylococcus epidermidis ATCC 12228 after 18 hrs by CLSI disc diffusion method. Conditions: ATCC 12228, 18 h. Format: functional.
Series [10] in a line: Selectivity index, ratio of IC50 for human HaCaT cells to MIC for Escherichia coli ATCC 10538. Format: toxicity. Particulars: read-out: Selectivity Index.
Another series deals with Bacillus spizizenii. The series is described as follows: Antibacterial activity against Bacillus subtilis ATCC 6633 after 18 hrs by CLSI disc diffusion method. Particulars: ATCC 6633, 18 h. Format: functional.
The subject of another series is Bacillus cereus. The experiment in a line: Antibacterial activity against Bacillus cereus ATCC 11778 after 18 hrs by CLSI disc diffusion method. The class given is functional. Particulars: ATCC 11778, 18 h.
Series [11] is described as follows: Selectivity index, ratio of IC50 for human HaCaT cells to MIC for Micrococcus luteus ATCC 10240. Format: toxicity. Particulars: read-out: Selectivity Index.
The next series deals with HaCaT. The experiment in a line: Cytotoxicity activity against human HaCaT cells assessed as reduction in cell viability after 72 hrs by MTT assay. Format: cell-based.
Series [12] is described as follows: Selectivity index, ratio of IC50 for human HaCaT cells to MIC for Bacillus subtilis ATCC 6633. The class given is toxicity. Particulars: read-out: Selectivity Index.
Series [13] can be described thus: Selectivity index, ratio of IC50 for human HaCaT cells to MIC for Enterococcus hirae ATCC 10541. The class given is toxicity. Conditions: read-out: Selectivity Index.
The test system of series [14] is Staphylococcus aureus. The series is described as follows: Antibacterial activity against Staphylococcus aureus ATCC 25923 after 18 hrs by CLSI disc diffusion method. The class given is functional. Particulars: ATCC 25923, 18 h.
The subject of another series is Enterococcus faecalis. The experiment in a line: Antibacterial activity against Enterococcus faecalis ATCC 29212 after 18 hrs by CLSI disc diffusion method. Particulars: ATCC 29212, 18 h. The class given is functional.
Series [15] relates to Staphylococcus aureus. The experiment in a line: Antibacterial activity against Staphylococcus aureus ATCC 6538 after 18 hrs by CLSI disc diffusion method. The class given is functional. Conditions: ATCC 6538, 18 h.
Series [16] can be described thus: Selectivity index, ratio of IC50 for human HaCaT cells to MIC for Staphylococcus aureus NCTC 4163. The class given is toxicity. Particulars: read-out: Selectivity Index.
The next series relates to Enterococcus hirae. The series is described as follows: Antibacterial activity against Enterococcus hirae ATCC 10541 after 18 hrs by CLSI disc diffusion method. Particulars: ATCC 10541, 18 h. The class given is functional.
Series [17] relates to Pseudomonas aeruginosa. The series is described as follows: Antibacterial activity against Pseudomonas aeruginosa ATCC 15442 after 18 hrs by CLSI disc diffusion method. The class given is functional. Particulars: ATCC 15442, 18 h.

The MIC is the lowest concentration that inhibits growth of the organism. The IC50 is the concentration that gives 50% inhibition. `Fc1ccc(-n2nnnc2Nn2cnnc2)cc1`: the minimum inhibitory concentration (MIC) against Micrococcus luteus [1] was found to be 2 µM (≈ 0.492 µg/mL); with Pseudomonas aeruginosa [3], 1040 µM (≈ 256 µg/mL); in the series with Escherichia coli, 16 µM (≈ 3.94 µg/mL); in the series with Staphylococcus aureus [4], 65 µM (≈ 16 µg/mL); in [5], 130 µM (≈ 32 µg/mL); in the series on Proteus vulgaris, 8 µM (≈ 1.97 µg/mL). Further, the MIC against Micrococcus luteus [6] stood at 2 µM (≈ 0.492 µg/mL); in [8], 16 µM (≈ 3.94 µg/mL); in series [9], 33 µM (≈ 8.12 µg/mL); against Bacillus spizizenii, 65 µM (≈ 16 µg/mL); against Bacillus cereus it was 65 µM (≈ 16 µg/mL); in the series on Staphylococcus aureus [14] it was 65 µM (≈ 16 µg/mL). The MIC turned out to be 8 µM (≈ 1.97 µg/mL) in the series with Enterococcus faecalis, 33 µM (≈ 8.12 µg/mL) in the series with Staphylococcus aureus [15], 65 µM (≈ 16 µg/mL) in the series with Enterococcus hirae and 1040 µM (≈ 256 µg/mL) in the series on Pseudomonas aeruginosa [17]. The selectivity ratio in series [2] stood at 0.09; in series [7], 1.47; in [10] it was 1.47; in series [11], 1.47; in [12], 1.29; in series [13], 2.89. Besides, in series [16], the selectivity ratio came out at 1.29. The IC50 in the series with A549 stood at 80 µM; in the series on HaCaT, 84 µM.
Turning to `O=[N+]([O-])c1cc(-n2nnnc2Nc2nc[nH]n2)ccc1Cl`, the MIC in the series on Micrococcus luteus [1] stood at 52 µM (≈ 16 µg/mL); against Pseudomonas aeruginosa [3] it was 834 µM (≈ 257 µg/mL); in the series with Escherichia coli, 417 µM (≈ 128 µg/mL); in the series with Staphylococcus aureus [4], 208 µM (≈ 64 µg/mL); in series [5], 417 µM (≈ 128 µg/mL); against Proteus vulgaris, 208 µM (≈ 64 µg/mL). Besides, the MIC in the series on Micrococcus luteus [6] worked out at 52 µM (≈ 16 µg/mL); in [8] it was 52 µM (≈ 16 µg/mL); in series [9], 104 µM (≈ 32 µg/mL); with Bacillus spizizenii, 52 µM (≈ 16 µg/mL); with Bacillus cereus it was 26 µM (≈ 8 µg/mL); in the series with Staphylococcus aureus [14] it was 208 µM (≈ 64 µg/mL). Further, the MIC in the series with Enterococcus faecalis was 208 µM (≈ 64 µg/mL); in the series on Staphylococcus aureus [15], 208 µM (≈ 64 µg/mL); against Enterococcus hirae, 208 µM (≈ 64 µg/mL); with Pseudomonas aeruginosa [17], 834 µM (≈ 257 µg/mL).
In the case of `CCn1nnnc1NCCc1c[nH]c2ccccc12`, the MIC was 999 µM (≈ 256 µg/mL) in the series on Micrococcus luteus [1]; 999 µM (≈ 256 µg/mL) against Pseudomonas aeruginosa [3]; 999 µM (≈ 256 µg/mL) in the series on Escherichia coli; more than 999 µM in the series on Staphylococcus aureus [4]; 999 µM (≈ 256 µg/mL) in series [5]; 999 µM (≈ 256 µg/mL) against Proteus vulgaris. For the same compound, the MIC was 999 µM (≈ 256 µg/mL) with Micrococcus luteus [6]; 999 µM (≈ 256 µg/mL) in [8]; 999 µM (≈ 256 µg/mL) in series [9]; 999 µM (≈ 256 µg/mL) against Bacillus spizizenii; 999 µM (≈ 256 µg/mL) with Bacillus cereus; more than 999 µM against Staphylococcus aureus [14]. Further, the MIC in the series with Enterococcus faecalis was 999 µM (≈ 256 µg/mL); against Staphylococcus aureus [15] it was more than 999 µM; in the series on Enterococcus hirae, 999 µM (≈ 256 µg/mL); with Pseudomonas aeruginosa [17], 999 µM (≈ 256 µg/mL).
With `O=[N+]([O-])c1ccc(-n2nnnc2Nn2cnnc2)cc1`, the MIC came out at 59 µM (≈ 16.1 µg/mL) in the series on Micrococcus luteus [1]; 938 µM (≈ 256 µg/mL) in the series with Pseudomonas aeruginosa [3]; 117 µM (≈ 32 µg/mL) with Escherichia coli; 7 µM (≈ 1.91 µg/mL) with Staphylococcus aureus [4]; 117 µM (≈ 32 µg/mL) in series [5]; 117 µM (≈ 32 µg/mL) against Proteus vulgaris. Moreover, the MIC in the series with Micrococcus luteus [6] came to 59 µM (≈ 16.1 µg/mL); in series [8], 4 µM (≈ 1.09 µg/mL); in series [9] it was 4 µM (≈ 1.09 µg/mL); against Bacillus spizizenii, 29 µM (≈ 7.92 µg/mL); in the series on Bacillus cereus it was 29 µM (≈ 7.92 µg/mL); against Staphylococcus aureus [14], 7 µM (≈ 1.91 µg/mL). In addition, the MIC against Enterococcus faecalis stood at 234 µM (≈ 63.9 µg/mL); in the series on Staphylococcus aureus [15], 7 µM (≈ 1.91 µg/mL); in the series with Enterococcus hirae, 29 µM (≈ 7.92 µg/mL); against Pseudomonas aeruginosa [17], 938 µM (≈ 256 µg/mL). The selectivity ratio in [2] is 0.55; in series [7] it was 0.55; in series [10], 0.55; in series [11] it was 1.1; in series [12] it was 2.24; in [13], 2.24. Besides, in [16], the selectivity ratio is 9.28. Moreover, the IC50 stood at 60 µM with A549 and 65 µM in the series on HaCaT.
For `COc1cccc2c1C(=O)c1c(O)c3c(c(O)c1C2=O)C[C@@](O)(C(=O)CO)C[C@@H]3O[C@H]1C[C@H](N)[C@H](O)[C@H](C)O1` [DOXORUBICIN], the figures for the IC50 in the series on A549 and with HaCaT were 0.63 µM and 1.09 µM, respectively.
